In PubChem BioAssay (NCI):
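These data come from cells grown in 96-well plates and exposed to compound for 48 hours at five concentrations. Here, GI50 denotes the concentration required for 50% inhibition of growth. TGI denotes the concentration required for complete inhibition of growth.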

Experiments:
Test in all cases: NCI tumour cell line growth inhibition, 48 h
[1] = tested on: LOX IMVI melanoma
[2] = tested on: OVCAR-5 ovarian
[3] = tested on: SNB-75 CNS
[4] = tested on: NCI-H460 lung
[5] = tested on: PC-3 prostate
[6] = tested on: COLO 205 colon
[7] = tested on: HCT-116 colon
[8] = tested on: HL-60(TB) leukemia
[9] = tested on: OVCAR-4 ovarian
[10] = tested on: SK-MEL-5 melanoma

Structure (SMILES)	GI50 [1] [nM]	TGI [1] [µM]	GI50 [2] [µM]	TGI [2] [µM]	GI50 [3] [µM]	TGI [3] [µM]	GI50 [4] [nM]	TGI [4] [µM]	GI50 [5] [nM]	TGI [5] [µM]	GI50 [6] [nM]	TGI [6] [µM]	GI50 [7] [nM]	TGI [7] [µM]	GI50 [8] [nM]	TGI [8] [µM]	GI50 [9] [nM]	TGI [9] [µM]	GI50 [10] [nM]	TGI [10] [µM]
CN1CCN(CC(=O)N2c3cccc4cccc(c34)N(C(=O)CN3CCN(C)CC3)C2c2cn(-c3ccccc3)nc2-c2cccc([N+](=O)[O-])c2)CC1	1740	3.22	2.46	7.53	1.32	2.71	2230	4.98	2800	10.4	1840	3.82	1650	3.1	1890	3.75	2250	5.24	1700	3.11
Cc1cc(N(CCOS(C)(=O)=O)CCOS(C)(=O)=O)ccc1C=Nc1ccc(-c2csc(-c3ccc(Br)cc3)n2)cc1	–	36.5	–	54.9	–	23.8	–	12.7	–	86.8	–	2.89	–	> 87.9	–	55.9	–	84.9	–	34.1
COc1cnc2c(c1)C(=O)c1c-2n(CCCNC(C)C)c(=O)c2cc([N+](=O)[O-])ccc12	18.9	0.104	0.155	0.624	0.0696	0.48	19.1	0.126	211	3.07	29.3	0.225	–	–	33.6	0.111	179	0.807	46.1	0.177
Oc1c(I)cc(I)cc1CN(Cc1ccccn1)Cc1ccccn1	629	> 33.8	2.14	53.5	0.419	7.67	456	8.68	898	20.6	2000	15.1	666	12.4	1300	7.03	658	> 44.1	542	2.59
CCN1CCN(c2ccc(Nc3ncc4ccc5ncn(C(C)C)c5c4n3)nc2)CC1	116	0.556	0.037	21.5	0.14	0.415	77.7	0.68	107	1.36	85.2	0.342	31.2	0.55	< 23.8	0.586	273	0.885	153	0.405
Cc1nc2sc(C(=O)Nc3cccc(Br)c3)c(N)c2cc1C(O)c1ccccc1 (centres undefined)	731	22.9	3.09	20.1	0.224	4.15	391	4.74	2890	31	3610	20.2	438	16.2	395	1.6	1310	20.4	552	1.96
Nc1nc(-c2ccc(Cl)cc2)cc(-c2ccccc2)c1-c1nc2ccccc2o1	2420	5.77	19.8	54.7	10.5	24.5	3980	> 100	4620	16.8	19100	35.9	3210	9.17	3470	9.23	11500	28	14600	29.4
COc1ccc2nc(-c3cc4c([nH]c5ccccc54)c(-c4ccc(F)c(F)c4)n3)[nH]c2c1	2860	10.8	17.8	58.6	14.2	29.7	2970	12.5	3250	22.5	1880	4.66	2050	4.11	2780	7.12	6300	24	4910	21.9
COc1cc(C)c(NC(=O)CN(C)C)cc1Nc1nc(Nc2cccc(F)c2C(N)=O)c2cc[nH]c2n1	1450	6.1	0.0336	3.63	3.37	6.92	604	4.49	2210	7.56	14	0.552	686	4.31	20.5	0.875	2920	7.43	690	4.36
Nc1nc(-c2ccccc2)cc(-c2ccc(Cl)cc2)c1-c1nc2ccccc2o1	6040	18.4	21.8	42.1	12.9	26.3	7440	23.6	2950	14.2	21400	37.3	7410	20.2	4420	17	13500	28	12800	25.4
Nc1ccc(-c2ccc(-c3nc4cc(Cl)c(Cl)cc4[nH]3)cc2)cc1	36.1	> 25.8	26.2	> 100	16.3	55.9	878	> 31.9	7990	> 61.2	95.3	> 37.7	503	> 100	8220	> 100	3010	> 100	1420	> 100
C=C1C(=O)O[C@H]2[C@H]1CC/C(COC(=O)NCc1cc(OC)cc(OC)c1)=C\CC[C@@]1(C)O[C@@H]21	549	1.89	1.82	4.45	1.99	12.7	3010	11.6	2720	8.67	1350	3.09	771	2.06	1690	5.03	1700	5.24	3480	12.2
COc1ccc(C(c2cc3c(cc2O)OCO3)N2CCOCC2)cc1OC (centres undefined)	–	16.5	–	21.5	–	31.8	–	71.9	–	25.7	–	28.8	–	22.9	–	79.8	–	29	–	26.3
O=C(O)CCSC(=S)Nc1ccc([N+](=O)[O-])cc1	–	> 75.7	–	> 100	–	> 100	–	> 100	–	> 100	–	> 100	–	> 100	–	48.6	–	> 100	–	34.5
CC1=CC(=O)c2ccc(C)cc2C1=O	–	17.5	–	35.4	–	–	–	32.4	–	44.1	–	31.1	–	15.1	–	5.4	–	52.5	–	15
O=C(O)c1ccccc1Nc1ccc2nnc(-c3ccncc3)n2n1	1970	4.1	17.4	79.3	12.2	25	4270	24	13400	31.9	13000	30.8	4090	21	32500	> 100	–	–	3920	14.8
Cc1ccc(C2=NN(c3ccc(S(N)(=O)=O)cc3)C(c3cn(-c4ccccc4)nc3-c3ccccc3)C2)cc1 (centres undefined)	24900	> 100	70.4	> 100	80.5	> 100	4220	> 100	3320	> 100	15100	> 100	3070	42	44000	> 100	–	–	16600	> 100
N#Cc1nn(-c2cc(=O)[nH]c3ccc(Br)cc23)c(N)c1C#N	> 100000	> 100	> 100	> 100	57.1	> 100	> 100000	> 100	> 100000	> 100	> 100000	> 100	> 100000	> 100	> 100000	> 100	–	–	> 100000	> 100
COC1=C(OC)[C@]2(OC)c3c(O)c(OC)c4c(c3O[C@@]23O[C@@H](c2ccccc2)CC=C3C1=O)[C@@H](O)C[C@H](c1ccccc1)O4	157	0.377	1.64	3.18	0.693	1.98	1420	2.97	466	1.03	–	–	183	0.38	177	0.627	1480	3.38	1320	2.6
